Measurements: patent US20190127313A1, “ANTIMICROBIAL AGENTS” (THE UNIVERSITY OF WARWICK, priority 2016, published 2019)
≈ marks a conversion by molar mass, not a printed value.

What was measured:
[1] = system: multidrug-resistant A. baumannii strains; test: MIC against multidrug-resistant A. baumannii strains; format: cell-based; conditions: Acinetobacter baumannii
Method: Minimal inhibitory concentrations (MICs) were determined by the CLSI broth microdilution method. Briefly, representative members of the ESKAPE panel of pathogens were grown overnight in Mueller-Hinton (MH) broth at 30° C. Each organism was diluted to a final concentration of 5×10^5 […] using McFarland turbidity standards. Concentrations of vibroxin followed twofold dilutions starting at 32 μg/mL. Assays were incubated for 18h at 30° C.

[2] = Alkaline hydrolysis of the ester linkage, LC-MS analysis; format: physicochemical; conditions: 0.4M KOH, 37° C., 4h
Method: The relative stereochemistry of the dihydroxycyclohexane carboxylic acid (DHCCA) moiety in vibroxin was determined by hydrolyzing the ester linkage in vibroxin under basic conditions. […] The same was not true for the corresponding portion of enacyloxin, which had degraded. […] The alkaline hydrolysis reaction was carried out by combining 15 μl of a 5 mg/ml solution of vibroxin/enacyloxin in methanol with 185 μl 0.4M KOH. Following incubation at 37° C. for 4h, the mixture was acidified (<pH 4) with 35% HCl. The samples were analysed by UHPLC-ESI-QTOF-MS analysis using a Dionex UltiMate 3000 RS UHPLC connected to a Zorbax Eclipse Plus column (C18, 100×2.1 mm, 1.8 μm) coupled to a Bruker MaXis IMPACT mass spectrometer. The mass spectrometer was operated in positive ion mode with a scan range of 50-3000 m/z.

[3] = system: A2780 human ovarian cancer cells; test: Cytotoxicity, SRB assay, A2780 cells; format: cell-based; conditions: 24 h exposure, 72 h recovery
Method: The cells were obtained from the European Collection of Animal Cell Culture and grown as single monolayers in Roswell Park Memorial Institute medium (RPMI-1640) supplemented with 10% (v/v) fetal calf serum, 1% (v/v) 2 mM L-glutamine and 1% (v/v) penicillin (10 k units/mL)/streptomycin (10 mg/mL). Cells were kept at 310 K in a humidified atmosphere containing 5% CO2 and maintenance passages were done at ca. 80% confluency.
For cytotoxicity measurements, 96-well plates were used to seed 5000 A2780 cells per well. These were left to pre-incubate in drug-free media at 310 K for 48 h before adding various concentrations of vibroxin. A stock solution of vibroxin was prepared in 5% v/v DMSO and 95% v/v cell culture medium. Then, serial dilutions with culture medium were carried out to achieve working concentrations. […] The percentage of viable cells resulting from exposure to vibroxin was determined by measuring the absorbance due to soluble sulforohodamine relative to an untreated control. The absorbance measurements were carried out using a BioRad iMark microplate reader with a 470 nm filter. Mean percentage cell viability values+/−1 standard deviation were calculated from duplicates of triplicates in two independent sets of experiments.

[4] = system: Klebsiella pneumoniae DSM26371; test: MIC by CLSI broth microdilution, ESKAPE panel; format: cell-based; conditions: MH broth, 18h at 30° C.
Method: (§1) Minimal inhibitory concentrations (MICs) were determined by the CLSI broth microdilution method. Briefly, representative members of the […] panel of pathogens were grown overnight in Mueller-Hinton (MH) broth at 30° C. Each organism was diluted to a final concentration of 5×10^5 […] using McFarland turbidity standards. Concentrations of vibroxin followed twofold dilutions starting at 32 μg/mL. Assays were incubated for 18h at 30° C. […] Cell suspensions without visible growth were then plated out on LB agar plates to determine the minimal bactericidal concentration (MBC). The MBC was set as the lowest concentration required to kill 99.9% of the originally inoculated 5.10^5 CFU/ml. All MIC and MBC determinations were performed in triplicate.

[5] = system: Staphylococcus aureus DSM21979; test: MIC by CLSI broth microdilution, ESKAPE panel; format: cell-based; conditions: MH broth, 18h at 30° C.
Method: as §1

[6] = system: Enterococcus faecium DSM25390; test: MIC by CLSI broth microdilution, ESKAPE panel; format: cell-based; conditions: MH broth, 18h at 30° C.
Method: as §1

[7] = system: Enterobacter cloacae DSM16690; test: MIC by CLSI broth microdilution, ESKAPE panel; format: cell-based; conditions: MH broth, 18h at 30° C.
Method: as §1

[8] = system: Pseudomonas aeruginosa DSM29239; test: MIC by CLSI broth microdilution, ESKAPE panel; format: cell-based; conditions: MH broth, 18h at 30° C.
Method: as §1

[9] = system: Acinetobacter baumannii AB5075; test: MIC/MBC by CLSI broth microdilution, ESKAPE panel; format: cell-based
Method: as §1

[10] = system: Acinetobacter baumannii S1; test: MIC/MBC by CLSI broth microdilution, ESKAPE panel; format: cell-based
Method: as §1

[11] = system: Acinetobacter baumannii AYE; test: MIC/MBC by CLSI broth microdilution, ESKAPE panel; format: cell-based
Method: as §1

[12] = system: Acinetobacter baumannii DSM25645; test: MIC/MBC by CLSI broth microdilution, ESKAPE panel; format: cell-based
Method: as §1

[13] = system: Acinetobacter baumannii ATCC17978; test: MIC/MBC by CLSI broth microdilution, ESKAPE panel; format: cell-based
Method: as §1

[14] = system: A. baumannii strains; conditions: see Furukawa et al. 2007; cited from earlier work
[15] = lowest concentration required to kill 99.9%

For `CC/C=C/[C@@H](OC(N)=O)[C@@H](Cl)[C@H](O)CC(=O)[C@@H](O)[C@H](O)C(C)/C(Cl)=C/C=C/C=C(C)/C=C/C=C/C(=O)O[C@@H]1CC(C(=O)O)CC[C@@H]1O` (stereo partly shown) [enacyloxin, enacyloxin IIa, reference compound], the MIC [1] was 2 µg/mL (≈ 2.85 µM) and the “polyketide chain resulting from alkaline hydrolysis of the ester linkage, detection by LC-MS” value [2] was “had degraded”.
Work on `CC(/C=C/C=C/C(=O)OC1CC(C(=O)O)CCC1O)=C\C=C\C=C(/Cl)C(C)C(O)C(O)C(O)CC(O)/C=C/C=C/C(C)C` (stereo not shown) [vibroxin] yielded an IC50 [3] of 50 to 100 µM, an MIC [1] of 2 µg/mL (≈ 3.21 µM) and an MIC [4] of over 32 µg/mL. It also gave an MIC [5] of over 32 µg/mL, an MIC [6] of over 32 µg/mL and an MIC [7] of over 32 µg/mL. For the same compound, the MIC [8] was over 32 µg/mL, the MIC ([9]; MH broth, 18h at 30° C.) was 2 µg/mL (≈ 3.21 µM) and the MBC [9, 15] was 4 µg/mL (≈ 6.42 µM). It also gave an MIC ([10]; MH broth, 18h at 30° C.) of 1 µg/mL (≈ 1.6 µM), an MBC [10, 15] of 8 µg/mL (≈ 12.8 µM) and an MIC ([11]; MH broth, 18h at 30° C.) of 2 µg/mL (≈ 3.21 µM). The MBC [11, 15] was 4 µg/mL (≈ 6.42 µM), the MIC ([12]; MH broth, 18h at 30° C.) was 2 µg/mL (≈ 3.21 µM) and the MBC [12, 15] was 8 µg/mL (≈ 12.8 µM). For the same compound, the MIC ([13]; MH broth, 18h at 30° C.) was 2 µg/mL (≈ 3.21 µM), the MBC [13, 15] was 8 µg/mL (≈ 12.8 µM) and the “polyketide chain resulting from alkaline hydrolysis of the ester linkage, detection by LC-MS” value [2] was “could also be detected by LC-MS”. For the same compound, the “chemical stability (comparison)” value ([2]; alkaline hydrolysis) was “greater chemical stability than enacyloxin”.
In the case of C-18 deschloro-enacyloxin, the MIC [14] is listed as over 32 µg/mL.
